Measured values reported in ChEMBL document CHEMBL1125858, “Synthesis and biological activity of MK 287 (L-680,573): a potent, specific and orally active paf receptor antagonist” (Bioorg Med Chem Lett, 1991).
Calls of active or inactive are those of the source. The calls are words filed in the database; no cut-off is given here.

How the values were obtained:
Cavia porcellus [1] = test: Compound was tested for it's ability to inhibit PAF-induced bronchoconstriction in female guinea pigs after intravenous dosing; type: functional
Homo sapiens [2] = organism: Homo sapiens; test: Compound was tested for human platelet aggregation induced by thromboxane A2 agonist U-44,069 at concentrations from 1 to 10 uM; NE means no effect; type: functional, organism-based
Homo sapiens [3] = organism: Homo sapiens; test: Compound was tested for PAF-induced human platelet aggregation in plasma-rich platelets.; type: functional, organism-based
[4] = target: C5a anaphylatoxin chemotactic receptor 1 (Homo sapiens) (UniProt P21730); conditions: 1 to 10 uM
Rattus norvegicus [5] = test: In vivo efficacy for increased plasma N-acetyl-beta-D-glucosaminidase (NAGA) activity in male and female rats in a dose-dependent manner; type: functional
Rattus norvegicus [6] = test: In vivo efficacy for inhibition of PAF-induced (10 nM/kg) extravasation in male and female rats in a dose-dependent manner; type: functional
Homo sapiens [7] = organism: Homo sapiens; test: The compound was tested for PAF-induced degranulation in preincubated isolated human neutrophils; type: functional
[8] = target: T1, Alpha-2A adrenergic receptor (Bos taurus) (UniProt Q28838); test: Compound was tested for it's binding affinity towards calf brain alpha 2 receptor at a concentration of 10 uM; NA means no affinity.
T1 sequence (whole entry): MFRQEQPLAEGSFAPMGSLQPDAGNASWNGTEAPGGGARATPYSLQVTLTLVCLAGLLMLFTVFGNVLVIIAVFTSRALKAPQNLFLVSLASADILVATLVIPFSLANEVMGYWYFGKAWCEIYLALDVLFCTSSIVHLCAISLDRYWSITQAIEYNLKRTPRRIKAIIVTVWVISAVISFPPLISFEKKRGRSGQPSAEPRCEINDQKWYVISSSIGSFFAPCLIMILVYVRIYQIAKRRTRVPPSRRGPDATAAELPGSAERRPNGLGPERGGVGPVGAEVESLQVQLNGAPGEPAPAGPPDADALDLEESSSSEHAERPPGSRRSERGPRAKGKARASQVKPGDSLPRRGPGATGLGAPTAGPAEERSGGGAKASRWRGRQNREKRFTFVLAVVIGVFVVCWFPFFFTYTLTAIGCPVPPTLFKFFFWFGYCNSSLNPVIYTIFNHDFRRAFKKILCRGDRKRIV

[9] = target: T2, Alpha-1A adrenergic receptor (Bos taurus) (UniProt P18130); test: Compound was tested for it's binding affinity towards calf brain alpha 1 receptor at a concentration of 10 uM; NA means no affinity.
T2 sequence (whole entry): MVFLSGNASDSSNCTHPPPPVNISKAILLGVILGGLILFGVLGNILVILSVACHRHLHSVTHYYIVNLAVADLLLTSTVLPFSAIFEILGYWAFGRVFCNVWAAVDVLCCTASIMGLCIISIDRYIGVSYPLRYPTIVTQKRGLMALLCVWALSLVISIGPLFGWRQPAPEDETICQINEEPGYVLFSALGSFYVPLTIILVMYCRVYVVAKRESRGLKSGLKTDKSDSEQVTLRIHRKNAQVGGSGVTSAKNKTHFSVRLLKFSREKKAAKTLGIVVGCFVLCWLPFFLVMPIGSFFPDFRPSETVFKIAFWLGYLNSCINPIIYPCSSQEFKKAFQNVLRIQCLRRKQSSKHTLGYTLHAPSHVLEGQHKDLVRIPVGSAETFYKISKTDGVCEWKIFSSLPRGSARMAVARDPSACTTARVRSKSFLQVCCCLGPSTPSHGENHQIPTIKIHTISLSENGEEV

Cavia porcellus [10] = test: Compound was tested for it's ability to inhibit PAF-induced bronchoconstriction in male guinea pigs after intravenous dosing; type: functional
Homo sapiens [11] = organism: Homo sapiens; test: Compound was tested for human platelet aggregation induced by vasopressin at concentrations from 1 to 10 uM; NE means no effect; type: functional, organism-based
Homo sapiens [12] = organism: Homo sapiens; test: Compound was tested for PAF-induced human platelet aggregation in washed platelets.; type: functional, organism-based
[13] = target: Leukotriene B4 receptor 1 (Homo sapiens) (UniProt Q15722); conditions: 1 to 10 uM
[14] = target: Beta-1 adrenergic receptor (Cavia porcellus) (UniProt B0FL73); test: Compound was tested for it's binding affinity towards guinea pig heart Beta-1 adrenergic receptor at a concentration of 10 uM; NA means no affinity.
[15] = target: Beta-2 adrenergic receptor (Cavia porcellus) (UniProt Q8K4Z4); test: Compound was tested for it's binding affinity towards guinea pig lung Beta-2 adrenergic receptor at a concentration of 10 uM; NA means no affinity.
Homo sapiens [16] = organism: Homo sapiens; test: Compound was tested for human platelet aggregation induced by ADP at concentrations from 1 to 10 uM; NE means no effect; type: functional, organism-based
[17] = Half-life in rhesus monkeys by intravenous administration of dose; type: ADME, organism-based; conditions: cercopithecidae, in vivo

Chain of C5a anaphylatoxin chemotactic receptor 1 (Homo sapiens) (P21730 whole entry, looked up): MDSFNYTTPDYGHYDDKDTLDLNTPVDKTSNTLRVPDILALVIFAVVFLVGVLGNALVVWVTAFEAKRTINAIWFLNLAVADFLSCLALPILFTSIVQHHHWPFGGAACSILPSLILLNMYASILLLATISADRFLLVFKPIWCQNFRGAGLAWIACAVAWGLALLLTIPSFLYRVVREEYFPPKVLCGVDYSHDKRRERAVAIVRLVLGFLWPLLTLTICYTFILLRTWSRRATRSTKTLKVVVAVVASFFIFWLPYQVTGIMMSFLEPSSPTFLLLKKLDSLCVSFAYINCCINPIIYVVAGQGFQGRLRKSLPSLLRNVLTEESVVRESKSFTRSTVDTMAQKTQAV
Chain of Beta-1 adrenergic receptor (Cavia porcellus) (B0FL73 1-467): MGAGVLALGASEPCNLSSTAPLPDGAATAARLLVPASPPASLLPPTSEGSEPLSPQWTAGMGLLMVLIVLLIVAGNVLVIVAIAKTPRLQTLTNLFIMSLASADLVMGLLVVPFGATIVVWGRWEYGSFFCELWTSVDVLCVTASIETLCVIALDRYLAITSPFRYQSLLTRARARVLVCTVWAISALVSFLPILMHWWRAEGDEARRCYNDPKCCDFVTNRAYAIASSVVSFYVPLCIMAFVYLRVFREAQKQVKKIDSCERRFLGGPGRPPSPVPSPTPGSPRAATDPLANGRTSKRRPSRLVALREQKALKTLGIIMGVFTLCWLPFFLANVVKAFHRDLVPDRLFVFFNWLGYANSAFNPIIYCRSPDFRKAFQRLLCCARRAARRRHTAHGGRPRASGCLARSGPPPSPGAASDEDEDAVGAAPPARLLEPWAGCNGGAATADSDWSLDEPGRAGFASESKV
Chain of Beta-2 adrenergic receptor (Cavia porcellus) (Q8K4Z4 whole entry, looked up): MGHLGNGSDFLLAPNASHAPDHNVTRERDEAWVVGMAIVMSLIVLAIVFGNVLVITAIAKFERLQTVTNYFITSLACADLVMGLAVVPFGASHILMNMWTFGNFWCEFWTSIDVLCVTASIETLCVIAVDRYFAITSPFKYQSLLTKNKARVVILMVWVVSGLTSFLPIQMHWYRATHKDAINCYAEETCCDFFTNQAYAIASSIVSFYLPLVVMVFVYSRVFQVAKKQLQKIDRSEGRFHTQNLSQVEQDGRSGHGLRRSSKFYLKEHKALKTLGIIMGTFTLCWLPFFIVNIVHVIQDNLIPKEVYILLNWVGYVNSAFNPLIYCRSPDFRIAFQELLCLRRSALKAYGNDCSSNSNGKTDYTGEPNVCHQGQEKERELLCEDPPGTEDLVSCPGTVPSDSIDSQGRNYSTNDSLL
Chain of Leukotriene B4 receptor 1 (Homo sapiens) (Q15722 whole entry, looked up): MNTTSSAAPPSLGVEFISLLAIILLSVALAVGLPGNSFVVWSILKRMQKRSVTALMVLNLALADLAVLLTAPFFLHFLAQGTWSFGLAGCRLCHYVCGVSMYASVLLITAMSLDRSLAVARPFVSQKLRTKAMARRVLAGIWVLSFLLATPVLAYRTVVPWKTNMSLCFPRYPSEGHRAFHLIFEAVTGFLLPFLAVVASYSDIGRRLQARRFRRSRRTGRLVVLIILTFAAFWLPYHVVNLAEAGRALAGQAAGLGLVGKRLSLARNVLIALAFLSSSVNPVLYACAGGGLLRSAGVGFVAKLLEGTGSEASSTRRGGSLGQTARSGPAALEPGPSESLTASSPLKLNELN

Row | IC50 (Homo sapiens [3]) [nM] | IC50 (Homo sapiens [7]) [nM] | Affinity [8] | Affinity [9] | IC50 (Homo sapiens [12]) [nM] | inhibition [13] | Affinity [14] | Affinity [15] | half-life [17] [min] | Compound | ED50 (Cavia porcellus [1]) [mg/kg] | Activity (Homo sapiens [2]) | inhibition [4] | ED50 (Rattus norvegicus [5]) [mg/kg] | ED50 (Rattus norvegicus [6]) [mg/kg] | ED50 (Cavia porcellus [10]) [mg/kg] | Activity (Homo sapiens [11]) | Activity (Homo sapiens [16])
1 | 56 | 4 | inactive | inactive | 1.5 | inactive | inactive | inactive |  | CCCOc1c(OC)cc([C@@H]2CC[C@@H](c3cc(OC)c(OC)c(OC)c3)O2)cc1S(=O)(=O)CCO | 0.1 | inactive | inactive | 0.1 | 2.3 | 0.19 | inactive | inactive
2 |  |  |  |  |  |  |  |  | 14 | COc1cc([C@H]2CC[C@H](c3cc(OC)c(OC)c(OC)c3)O2)cc(OC)c1OC |  |  |  |  |  |  |  | 
